What all share (assay type): biochemical
Assay [1] deals with T1, recombinant soluble tissue factor and recombinant human factor VIIa (TF-VIIa) (Homo sapiens, UniProt P08709).
T1 construct: conversion of coagulation factor VII to VIIa by factor Xa; purchased American Diagnostica, Greenwich CT; host or cells: soluble TF made in house in E. coli
Description: TF-VIIa assay (chromogenic substrate hydrolysis). As to conditions: reported only as less than or greater than 0.1 uM. Here is the method: In this assay 100 nM recombinant soluble tissue factor and 2 nM recombinant human factor VIIa are added to a 96-well assay plate containing 0.4 mM of the substrate, N-methylsulfonyl-D-phe-gly-arg-p-nitroaniline and either inhibitor or buffer (5 mM CaCl2, 50 mM Tris-HCl, pH 8.0, 100 mM NaCl, 0.1% BSA). […] Percent inhibition of TF-VIIa activity is calculated from OD405 nm value from the experimental and control sample.
(§1) Recombinant human VIIa was purchased from American Diagnostica, Greenwich CT and chromogenic substrate N-methylsulfonyl-D-phe-gly-arg-p-nitroaniline was prepared by American Peptide Company, Inc., Sunnyvale, Calif. Factor Xa was obtained from Enzyme Research Laboratories, South Bend Ind., thrombin from Calbiochem, La Jolla, Calif., and trypsin and L-BAPNA from Sigma, St. Louis Mo.

For another assay, the target named is T2, Human thrombin (Homo sapiens, UniProt P00734).
T2 construct: converts prothrombin (II) to thrombin (IIa); purchased Calbiochem, La Jolla, Calif
Description: Thrombin assay (chromogenic substrate). As to conditions: reported only as less than or greater than 30 uM; read-out: Thrombin (II) IC50. The method, then:
Percent inhibition of thrombin activity is calculated from OD405 nm value from the experimental and control sample.
as §1

In a further assay the target is T3, Human factor Xa (Homo sapiens, UniProt P00742).
T3 construct: purchased Enzyme Research Laboratories, South Bend Ind
T3 sequence (P00742 235-488 limits assumed): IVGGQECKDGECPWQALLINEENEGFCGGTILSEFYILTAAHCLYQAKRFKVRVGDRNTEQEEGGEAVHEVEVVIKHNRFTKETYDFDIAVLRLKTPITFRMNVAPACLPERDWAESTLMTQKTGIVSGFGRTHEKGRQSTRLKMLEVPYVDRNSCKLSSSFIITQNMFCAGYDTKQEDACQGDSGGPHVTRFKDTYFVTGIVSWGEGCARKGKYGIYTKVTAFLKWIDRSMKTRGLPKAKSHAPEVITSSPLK
T3 sequence (P00742 41-179 limits assumed): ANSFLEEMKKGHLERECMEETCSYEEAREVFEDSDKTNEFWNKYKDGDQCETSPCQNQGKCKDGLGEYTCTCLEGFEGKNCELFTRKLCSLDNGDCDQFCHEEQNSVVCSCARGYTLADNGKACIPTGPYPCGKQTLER
Description: Xa assay (chromogenic substrate S-2765). As to conditions: reported only as less than or greater than 30 uM; read-out: Factor Xa (II) IC50. The method, then: Human factor Xa (0.3 nM) and 0.15 mM -a-Benzyloxycarbonyl-D-arginyl-L-glycyl-L-arginine-p-nitroaniline-dihydrochloride (S-2765) are added to a 96-well assay plate containing either inhibitor or buffer (50 mM Tris-HCl, pH 8.0, 100 mM NaCl, 0.1% BSA). The reaction, in a final volume of 100 ul is measured immediately at 405 nm to determine background absorbance. The plate is incubated at room temperature for 60 min, at which time the rate of hydrolysis of the substrate is measured by monitoring the reaction at 405 nm for the release of p-nitroaniline. Percent inhibition of Xa activity is calculated from OD405 nm value from the experimental and control sample.
Recombinant soluble TF, consisting of amino acids 1-219 of the mature protein sequence was expressed in E. coli and purified using a Mono Q Sepharose FPLC. Recombinant human VIIa was purchased from American Diagnostica, Greenwich CT and chromogenic substrate N-methylsulfonyl-D-phe-gly-arg-p-nitroaniline was prepared by American Peptide Company, Inc., Sunnyvale, Calif. Factor Xa was obtained from Enzyme Research Laboratories, South Bend Ind., thrombin from Calbiochem, La Jolla, Calif., and trypsin and L-BAPNA from Sigma, St. Louis Mo. The chromogenic substrates S-2765 and S-2238 were purchased from Chromogenix, Sweden.

Where a name gives a salt, the structure may show the parent alone. Some results are limits rather than exact numbers.

T1 sequence (P08709 213-466 limits assumed): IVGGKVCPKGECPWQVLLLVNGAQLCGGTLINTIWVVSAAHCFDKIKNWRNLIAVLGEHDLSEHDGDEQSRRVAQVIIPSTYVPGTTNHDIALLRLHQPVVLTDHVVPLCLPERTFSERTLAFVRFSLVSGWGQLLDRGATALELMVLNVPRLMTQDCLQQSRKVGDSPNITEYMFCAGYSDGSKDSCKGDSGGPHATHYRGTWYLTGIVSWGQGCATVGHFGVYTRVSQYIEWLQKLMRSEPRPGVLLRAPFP
T1 sequence (P08709 61-212 limits assumed): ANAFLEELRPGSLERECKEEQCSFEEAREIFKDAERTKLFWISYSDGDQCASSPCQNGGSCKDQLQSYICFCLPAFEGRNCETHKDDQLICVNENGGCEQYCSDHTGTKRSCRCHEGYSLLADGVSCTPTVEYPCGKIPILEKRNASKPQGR
T1 sequence (P13726 33-251 partner limits assumed): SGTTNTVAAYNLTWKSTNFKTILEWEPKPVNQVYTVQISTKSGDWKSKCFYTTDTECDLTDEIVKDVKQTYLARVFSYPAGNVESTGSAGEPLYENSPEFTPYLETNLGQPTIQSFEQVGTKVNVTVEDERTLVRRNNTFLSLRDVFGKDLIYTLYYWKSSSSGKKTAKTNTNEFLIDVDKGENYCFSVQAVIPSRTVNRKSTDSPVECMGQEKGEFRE

For orientation: IC50 means the concentration that inhibits the measured activity by half. Turning to `CC(C)Nc1ncc(-c2cc(N)cc(C(=O)NCc3cccc(F)c3)c2)n(CC(=O)NCc2ccc(C(=N)N)cc2)c1=O` [Example 8], the IC50 is below 0.1 µM in assay [1], above 30 µM at Human thrombin and above 30 µM at Human factor Xa.

Take `CC(C)Nc1ncc(-c2cc(N)cc(C(=O)NC3CCCCCC3)c2)n(CC(=O)NCc2ccc(C(=N)N)cc2)c1=O` [Example 9]: the figures for the IC50 (in assay [1]; on Human thrombin; on Human factor Xa) were below 0.1 µM, below 30 µM and above 30 µM, respectively.

Take `CC(C)Nc1ncc(-c2cc(N)cc(C(=O)NC3CCCC3)c2)n(CC(=O)NCc2ccc(C(=N)N)cc2)c1=O` [Example 11]: the IC50 is below 0.1 µM in assay [1], below 30 µM at Human thrombin and below 30 µM at Human factor Xa.

Regarding `CC(C)Nc1ncc(-c2cc(N)cc(C(=O)NC[Si](C)(C)C)c2)n(CC(=O)NCc2ccc(C(=N)N)cc2)c1=O` [Example 12], the IC50 in assay [1] is below 0.1 µM; at Human thrombin, above 30 µM; at Human factor Xa it was above 30 µM.

With `CC(C)Nc1ncc(-c2cc(N)cc(C(=O)NC(C)(C)c3ccccc3)c2)n(CC(=O)NCc2ccc(C(=N)N)cc2)c1=O` [Example 13], the IC50 is below 0.1 µM in assay [1], below 30 µM at Human thrombin and above 30 µM on Human factor Xa.

`COC(=O)c1cc(N)cc(-c2cnc(NC(C)C)c(=O)n2CC(=O)NCc2c(F)c(O)c(C(=N)N)c(F)c2F)c1` [Example 20]: the IC50 was above 0.1 µM in assay [1], above 30 µM at Human thrombin and above 30 µM on Human factor Xa.

Regarding `COC(=O)c1cc(N)cc(-c2cnc(NC(C)C)c(=O)n2CC(=O)NCc2ccc(C(=N)N)cc2)c1` [Example 21, Methyl 3-amino-5-[1-[2-({4-[amino(imino)methyl]benzyl}amino)-2-oxoethyl]-5-(isopropylamino)-6-oxo-1,6-dihydropyrazin-2-yl]benzoate Trifluoroacetate], the IC50 in assay [1] was below 0.1 µM; on Human thrombin, above 30 µM; at Human factor Xa, above 30 µM.

For `COC(=O)Cc1cc(N)c(OC)c(-c2cnc(NC(C)C)c(=O)n2CC(=O)NCc2ccc(C(=N)N)cc2)c1` [Example 22, Methyl {3-amino-5-[1-[2-({4-[amino(imino)methyl]benzyl}amino)-2-oxoethyl]-5-(isopropylamino)-6-oxo-1,6-dihydropyrazin-2-yl]-4-methoxyphenyl}acetate], the figures for the IC50 (in assay [1]; on Human thrombin; on Human factor Xa) were above 0.1 µM, above 30 µM and above 30 µM, respectively.

Turning to `COc1c(N)cc(CC(=O)O)cc1-c1cnc(NC(C)C)c(=O)n1CC(=O)NCc1ccc(C(=N)N)cc1` [Example 23, {3-Amino-5-[1-[2-({4-[amino(imino)methyl]benzyl}amino)-2-oxoethyl]-5-(isopropylamino)-6-oxo-1,6-dihydropyrazin-2-yl]-4-methoxyphenyl}acetic Acid], the IC50 was above 0.1 µM in assay [1], above 30 µM at Human thrombin and above 30 µM at Human factor Xa.

Regarding `CC(C)Nc1ncc(-c2cc(N)cc(C(=O)NCc3ccccc3)c2)n(CC(=O)NCc2ccc(C(=N)N)cc2)c1=O` [Example 25], the IC50 is below 0.1 µM in assay [1], below 30 µM at Human thrombin and above 30 µM on Human factor Xa.

In the case of `COCCNC(=O)c1cc(N)cc(-c2cnc(NC(C)C)c(=O)n2CC(=O)NCc2ccc(C(=N)N)cc2)c1` [Example 26, 3-amino-5-[1-[2-({4-[amino(imino)methyl]benzyl}amino)-2-oxoethyl]-5-(isopropylamino)-6-oxo-1,6-dihydropyrazin-2-yl]-N-(2-methoxyethyl)benzamide], the IC50 in assay [1] is below 0.1 µM; on Human thrombin, above 30 µM; at Human factor Xa, above 30 µM.

Consider `CC(C)CNC(=O)c1cc(N)cc(-c2cnc(NC(C)C)c(=O)n2CC(=O)NCc2ccc(C(=N)N)cc2)c1` [Example 27], for which the values for the IC50 (in assay [1]; at Human thrombin; on Human factor Xa) were below 0.1 µM, above 30 µM and above 30 µM, respectively.

On to `CC(C)Nc1ncc(-c2cc(N)cc(C(=O)NCCO)c2)n(CC(=O)NCc2ccc(C(=N)N)cc2)c1=O` [Example 30], for which the IC50 in assay [1] is above 0.1 µM; at Human thrombin it was above 30 µM; at Human factor Xa, above 30 µM.

On to `CC(C)Nc1nc(Cl)c(-c2cc(N)ccc2SCc2ccccc2)n(CC(=O)NCc2ccc(C(=N)N)cc2)c1=O` [Example 31], for which the results for the IC50 (in assay [1]; on Human thrombin; on Human factor Xa) were above 0.1 µM, above 30 µM and above 30 µM, respectively.

As for `CC(C)Nc1ncc(-c2cc(N)cc(C(=O)NCC(=O)O)c2)n(CC(=O)NCc2ccc(C(=N)N)cc2)c1=O` [Example 32], the IC50 is above 0.1 µM in assay [1], above 30 µM at Human thrombin and above 30 µM at Human factor Xa.

With `CC(C)Nc1ncc(-c2cc(N)cc(C(=O)NCCc3ccc(F)cc3)c2)n(CC(=O)NCc2ccc(C(=N)N)cc2)c1=O` [Example 33], the IC50 is below 0.1 µM in assay [1], above 30 µM at Human thrombin and above 30 µM at Human factor Xa.

As for `CNc1ncc(-c2cc(N)cc(C(=O)OC)c2)n(CC(=O)NCc2ccc(C(=N)N)cc2)c1=O` [Example 36], the values for the IC50 (in assay [1]; at Human thrombin; on Human factor Xa) were above 0.1 µM, above 30 µM and above 30 µM, respectively.

`CNc1ncc(-c2cc(N)cc(C(=O)O)c2)n(CC(=O)NCc2ccc(C(=N)N)cc2)c1=O` [Example 37]: the IC50 in assay [1] is above 0.1 µM; at Human thrombin, above 30 µM; at Human factor Xa, above 30 µM.

With `COC(=O)c1cc(N)cc(-c2cnc(NC(C)C)c(=O)n2CC(=O)NCc2c(F)c(F)c(C(=N)N)c(F)c2F)c1` [Example 48], the results for the IC50 (in assay [1]; on Human thrombin; at Human factor Xa) were above 0.1 µM, above 30 µM and above 30 µM, respectively.

As for `CC(C)Nc1ncc(-c2cc(N)cc(F)c2)n(CC(=O)NCc2ccc(C(=N)N)cc2)c1=O` [Example 52], the IC50 is below 0.1 µM in assay [1], below 30 µM on Human thrombin and above 30 µM at Human factor Xa.

`CC(C)NC(=O)c1cc(N)cc(-c2cnc(NC(C)C)c(=O)n2CC(=O)NCc2ccc(C(=N)N)cc2)c1` [Example 60]: the IC50 in assay [1] is below 0.1 µM; on Human thrombin, below 30 µM; at Human factor Xa, above 30 µM.

`CC(C)Nc1ncc(-c2cc(N)cc(-c3ccccc3)c2)n(CC(=O)NCc2ccc(C(=N)N)cc2)c1=O` [Example 69, 2-[6-(5-amino-1,1′-biphenyl-3-yl)-3-(isopropylamino)-2-oxopyrazin-1 (2H)-yl]-N-{4-[amino(imino)methyl]benzyl}acetamide]: the IC50 is below 0.1 µM in assay [1], above 30 µM on Human thrombin and above 30 µM at Human factor Xa.

With `CC(C)Nc1ncc(-c2cc(N)cc(C(F)(F)F)c2)n(CC(=O)NCc2ccc(C(=N)N)c(O)c2F)c1=O` [Example 97], the IC50 in assay [1] is above 0.1 µM; at Human thrombin, above 30 µM; at Human factor Xa it was above 30 µM.

In the case of `CC(C)Nc1ncc(-c2cc(N)cc(C(F)(F)F)c2)n(CC(=O)NCc2c(F)c(O)c(C(=N)N)c(F)c2F)c1=O` [Example 126], the IC50 in assay [1] was below 0.1 µM; on Human thrombin it was below 30 µM; on Human factor Xa, above 30 µM.

In the case of `CC(C)Nc1ncc(-c2cc(N)cc(NC(=O)C(C)(C)C)c2)n(CC(=O)NCc2ccc(C(=N)N)cc2)c1=O` [Example 132], the values for the half-inhibitory concentration (IC50) (in assay [1]; on Human thrombin; on Human factor Xa) were below 0.1 µM, below 30 µM and above 30 µM, respectively.

For `CCCCCC(C)C(=O)Nc1cc(N)cc(-c2cnc(NC(C)C)c(=O)n2CC(=O)NCc2ccc(C(=N)N)cc2)c1` (stereo not drawn) [Example 138], the half-inhibitory concentration (IC50) in assay [1] is below 0.1 µM; on Human thrombin, below 30 µM; at Human factor Xa it was above 30 µM.

On to `COc1cc(N)cc(-c2cnc(NC(C)C)c(=O)n2CC(=O)NCc2cc(O)c(C(=N)N)c(F)c2)c1` [Example 168], for which the IC50 in assay [1] is above 0.1 µM; on Human thrombin it was above 30 µM; on Human factor Xa, above 30 µM.

Consider `CC[C@H](C)NC(=O)c1cc(N)cc(-c2cnc(NC(C)C)c(=O)n2CC(=O)NCc2ccc(C(=N)N)c(O)c2F)c1` [Example 173], for which the IC50 in assay [1] is below 0.1 µM; on Human thrombin it was above 30 µM; on Human factor Xa, above 30 µM.

In the case of `CC(C)Nc1ncc(-c2cc(N)cc(O)c2)n(CC(=O)NCc2cc(O)c(C(=N)N)c(F)c2)c1=O` [Example 180], the figures for the IC50 (in assay [1]; at Human thrombin; on Human factor Xa) were above 0.1 µM, above 30 µM and above 30 µM, respectively.

For the origin of these results see US20040106626A1, “6-Membered unsaturated heterocyclic compounds useful for selective inhibition of the coagulation cascade” (Pharmacia Corporation, priority 2001, published 2004).
